From ChEMBL document CHEMBL5029183 (J Med Chem, 2021)
The source made the active and inactive calls.

Legend:
[1] = test system: Mus musculus; test: Antiallodynic activity in Kunming mouse model of spared nerve injury-induced neuropathic pain assessed as increase in paw withdrawal threshold at 0.67 to 6.7 nmol, icv by von Frey test; format: functional, organism-based; details: dose 0.67-6.7 nmol, time min <=50, TDE = time-dependent effect
[2] = test system: Mus musculus; test: Antiallodynic activity in Kunming mouse model of spared nerve injury-induced neuropathic pain assessed as increase in paw withdrawal threshold at 0.67 to 6.7 nmol, icv at 10 mins by von Frey test; format: functional, organism-based; details: dose 0.67-6.7 nmol
[3] = test system: Mus musculus; test: Antinociceptive activity in Kunming mouse model assessed as increase in paw withdrawal latency at 20 nmol, icv pretreated for 30 mins with nor-BNI followed by compound addition and measured upto 10 mins by radiant heat paw withdrawal assay; format: functional, organism-based; details: time min <=10
[4] = test system: Mus musculus; test: Antinociceptive activity in Kunming mouse model assessed as increase in paw withdrawal latency at 0.67 to 20 nmol, icv measured upto 50 mins by radiant heat paw withdrawal assay; format: functional, organism-based; details: dose 0.67-20 nmol, time min <=50
[5] = test system: Mus musculus; test: Antiallodynic activity in Kunming mouse model of CFA-induced inflammatory pain assessed as increase in ipsilateral withdrawal threshold at 10 micromol/kg, sc measured at 10 to 50 mins by von Frey test; format: functional, organism-based; details: dose 10.0 µmol/kg, time 10-50 min
[6] = test system: Mus musculus; test: Antinociceptive activity in Kunming mouse model assessed as increase in paw withdrawal latency at 20 nmol, icv pretreated for 10 mins with naloxone followed by compound addition and measured upto 10 mins by radiant heat paw withdrawal assay; format: functional, organism-based; details: time min <=10
[7] = test system: Mus musculus; test: Antiallodynic activity in Kunming mouse model of CFA-induced inflammatory pain assessed as increase in ipsilateral withdrawal threshold at 0.67 to 6.7 nmol, icv by von Frey test; format: functional, organism-based; details: dose 0.67-6.7 nmol, time 10-50 min, TDE = time-dependent effect
[8] = test system: Mus musculus; test: Antinociceptive activity in Kunming mouse model assessed as increase in paw withdrawal latency at 10 micromol/kg, sc pretreated with icv dosed naloxone methiodide for 5 mins followed by compound addition by radiant heat paw withdrawal assay; format: functional, organism-based; details: dose 10.0 µmol/kg
[9] = test system: Mus musculus; test: Antiallodynic activity in Kunming mouse model of spared nerve injury-induced neuropathic pain assessed as increase in paw withdrawal threshold at 10 micromol/kg, sc measured at 10 to 50 mins by von Frey test; format: functional, organism-based; details: dose 10.0 µmol/kg, time 10-50 min
[10] = test system: Mus musculus; test: Antinociceptive tolerance in Kunming mouse pretreated with compound for 3 hrs followed by challenge with second dose of compound at 20 nmol, icv and measured after 1 to 1.5 hrs by radiant heat paw withdrawal test; format: functional, organism-based; details: time 4-4.5 hrs
[11] = species on record: Mus musculus; test: Tolerance ratio of ED50 for Kunming mouse pretreated with 3 times ED50 of compound for 2 hrs followed by challenge with second dose of compound to ED50 for Kunming mouse pretreated with saline for 2 hrs followed by compound addition; format: functional
[12] = Metabolic stability in Kunming mouse serum assessed as half life measured upto 480 mins by RP-HPLC analysis; format: ADME, cell-free
[13] = test system: Mus musculus; test: Antinociceptive activity in Kunming mouse model assessed as increase in paw withdrawal latency at 20 nmol, icv pretreated for 20 mins with NTI followed by compound addition and measured upto 10 mins by radiant heat paw withdrawal assay; format: functional, organism-based; details: time min <=10
[14] = test system: Mus musculus; test: Antiallodynic activity in icv dosed Kunming mouse model of CFA-induced inflammatory pain assessed as increase in ipsilateral withdrawal threshold measured upto 50 mins by von Frey test; format: functional, organism-based; details: dose 0.67-6.7 nmol, time min <=50
[15] = Toxicity in Kunming mouse assessed as effect on motor coordination at 20 nmol, icv by rotarod test; details: in vivo, icv_or_intrathecal
[16] = test system: Mus musculus; test: Antinociceptive activity in Kunming mouse model assessed as increase in paw withdrawal latency at 20 nmol, icv pretreated for 20 mins with naloxonazine followed by compound addition and measured upto 10 mins by radiant heat paw withdrawal assay; format: functional, organism-based; details: time min <=10
[17] = species on record: Rattus norvegicus; test: Selectivity index, ratio of Ki for displacement of [3H]-U69593 from KOR in Wistar rat brain membranes to Ki for displacement of [3H]DAMGO from MOR in Wistar rat brain membranes; format: cell membranes
[18] = target: Mu-type opioid receptor (Rattus norvegicus, UniProt P33535); test: Displacement of [3H]DAMGO from MOR in Wistar rat brain membranes measured after 1 hr by scintillation counting method; format: cell membranes, Membrane
Sequence of Mu-type opioid receptor (Rattus norvegicus, UniProt P33535) (P33535 whole entry): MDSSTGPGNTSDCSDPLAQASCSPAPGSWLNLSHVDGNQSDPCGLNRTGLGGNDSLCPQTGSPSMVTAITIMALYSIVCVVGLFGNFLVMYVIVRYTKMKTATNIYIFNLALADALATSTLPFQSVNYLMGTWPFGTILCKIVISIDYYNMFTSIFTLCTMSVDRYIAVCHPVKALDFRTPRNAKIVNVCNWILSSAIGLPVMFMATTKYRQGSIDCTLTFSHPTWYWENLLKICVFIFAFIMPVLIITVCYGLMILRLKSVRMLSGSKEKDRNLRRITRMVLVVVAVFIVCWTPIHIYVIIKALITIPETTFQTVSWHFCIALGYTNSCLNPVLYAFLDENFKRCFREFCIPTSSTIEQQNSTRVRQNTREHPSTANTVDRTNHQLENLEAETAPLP

[19] = target: T1, Mu-type opioid receptor (Homo sapiens, UniProt P35372); test: Agonist activity at mu-opioid receptor (unknown origin) expressed in HEK293 cells assessed as inhibition of forskolin-induced cAMP accumulation incubated for 15 mins by ELISA; format: functional, cell-based
T1 sequence (P35372 whole entry): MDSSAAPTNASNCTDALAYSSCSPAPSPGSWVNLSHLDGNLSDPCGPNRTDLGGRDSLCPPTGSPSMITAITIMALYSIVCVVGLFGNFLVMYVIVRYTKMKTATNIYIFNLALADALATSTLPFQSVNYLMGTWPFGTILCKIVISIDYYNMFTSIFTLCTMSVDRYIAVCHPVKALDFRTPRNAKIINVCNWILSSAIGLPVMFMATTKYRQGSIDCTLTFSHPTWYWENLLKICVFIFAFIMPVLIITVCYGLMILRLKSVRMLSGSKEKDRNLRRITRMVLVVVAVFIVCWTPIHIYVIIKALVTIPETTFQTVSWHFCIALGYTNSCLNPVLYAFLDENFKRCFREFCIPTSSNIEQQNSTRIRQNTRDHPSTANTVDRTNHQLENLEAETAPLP

[20] = species on record: Rattus norvegicus; test: Selectivity index, ratio of Ki for displacement of [3H]DPDPE from DOR in Wistar rat brain membranes to Ki for displacement of [3H]DAMGO from MOR in Wistar rat brain membranes; format: cell membranes
[21] = test system: Mus musculus; test: Antinociceptive tolerance in Kunming mouse pretreated with compound for 3 hrs followed by challenge with second dose of compound at 20 nmol, icv and measured after 3 hrs by radiant heat paw withdrawal test; format: functional, organism-based; details: time 6.0 hrs
[22] = target: T1, Mu-type opioid receptor; test: Agonist activity at mu-opioid receptor (unknown origin) expressed in HEK293 cells assessed as inhibition of forskolin-induced cAMP accumulation incubated for 15 mins by ELISA relative to control; format: functional, cell-based; details: filed as agonist
[23] = test system: Mus musculus; test: Antinociceptive activity in Kunming mouse model assessed as increase in paw withdrawal latency at 0.67 to 20 nmol, icv by radiant heat paw withdrawal assay; format: functional, organism-based; details: dose 0.67-20 nmol, TDE = time-dependent effect
[24] = Metabolic stability in Kunming mouse brain assessed as half life measured upto 480 mins by RP-HPLC analysis; format: ADME, tissue-based
[25] = test system: Mus musculus; test: Antinociceptive activity in icv dosed Kunming mouse model assessed as increase in paw withdrawal latency by radiant heat paw withdrawal assay; format: functional; details: dose 0.67-20 nmol
[26] = test system: Mus musculus; test: Antinociceptive activity in Kunming mouse model assessed as maximum possible effect at 10 micromol/kg, sc by radiant heat paw withdrawal assay; format: functional; details: dose 10 µmol/kg
[27] = test system: Mus musculus; test: Antinociceptive activity in Kunming mouse model assessed as increase in paw withdrawal latency at 10 micromol/kg, sc pretreated with sc dosed naloxone for 5 mins followed by compound addition by radiant heat paw withdrawal assay; format: functional, organism-based; details: dose 10.0 µmol/kg
[28] = test system: Vas deferens; test: Inhibition of electric-field induced mouse vas deferens contraction; format: functional, tissue-based
[29] = test system: Mus musculus; test: Chronic antinociceptive tolerance in Kunming mouse pretreated with compound followed by repeated compound addition at 10 micromol/kg, sc once daily for 7 days and measured after 10 mins by radiant heat paw withdrawal test; format: functional, organism-based; details: dose 10.0 µmol/kg, time 7.0 day
[30] = target: Kappa-type opioid receptor (Homo sapiens) (UniProt P41145); test: Agonist activity at kappa-opioid receptor (unknown origin) expressed in HEK293 cells assessed as inhibition of forskolin-induced cAMP accumulation incubated for 15 mins by ELISA; format: functional, cell-based
Sequence of Kappa-type opioid receptor (Homo sapiens) (P41145 whole entry): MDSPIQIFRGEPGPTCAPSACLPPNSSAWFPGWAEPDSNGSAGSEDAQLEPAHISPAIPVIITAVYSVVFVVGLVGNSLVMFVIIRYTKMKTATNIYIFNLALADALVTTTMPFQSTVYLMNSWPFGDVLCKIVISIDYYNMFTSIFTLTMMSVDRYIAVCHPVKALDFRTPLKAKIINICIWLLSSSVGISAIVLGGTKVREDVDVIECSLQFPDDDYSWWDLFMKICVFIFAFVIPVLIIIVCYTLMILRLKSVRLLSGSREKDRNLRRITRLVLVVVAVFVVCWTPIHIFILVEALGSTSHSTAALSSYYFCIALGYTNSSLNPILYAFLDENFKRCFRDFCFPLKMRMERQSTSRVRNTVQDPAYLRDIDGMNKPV

[31] = Toxicity in Kunming mouse model assessed as conditioned place preference time at 20 nmol, icv; details: in vivo, icv_or_intrathecal
[32] = test system: Mus musculus; test: Antiallodynic activity in Kunming mouse model of spared nerve injury-induced neuropathic pain assessed as increase in paw withdrawal threshold at 0.67 to 6.7 nmol, icv after 50 mins by von Frey test; format: functional, organism-based; details: dose 0.67-6.7 nmol
[33] = test system: Mus musculus; test: Antiallodynic activity in icv dosed Kunming mouse model of spared nerve injury-induced neuropathic pain assessed as increase in ipsilateral withdrawal threshold by von Frey test; format: functional, organism-based; details: dose 0.67-6.7 nmol
[34] = test system: Mus musculus; test: Antiallodynic activity in icv dosed Kunming mouse model of spared nerve injury-induced neuropathic pain assessed as increase in paw withdrawal threshold measured upto 50 mins by von Frey test; format: functional, organism-based; details: dose 0.67-6.7 nmol, time min <=50
[35] = test system: Mus musculus; test: Antinociceptive activity in Kunming mouse model assessed as increase in paw withdrawal latency at 10 micromol/kg, sc pretreated with icv dosed naloxone for 5 mins followed by compound addition by radiant heat paw withdrawal assay; format: functional, organism-based; details: dose 10.0 µmol/kg

Q: Which Activity [1] does the source give for `Cc1cc(O)cc(C)c1C[C@H](N)C(=O)N[C@H]1CSSC[C@@H](C(=O)NCC(=O)N[C@H](CCCNC(=N)N)C(=O)N[C@H](CCCNC(=N)N)C(=O)O)NC(=O)[C@H](Cc2ccc(Cl)cc2)NC(=O)[C@H](Cc2c[nH]c3ccccc23)NC1=O` here?
A: Tde

Q: What about the Activity [2] of the same compound?
A: Active

Q: What about the Activity [3] of the same compound?
A: Active

Q: What about the Activity [4] of the same compound?
A: Active

Q: What about the Activity [5] of the same compound?
A: Active

Q: What about the Activity [6] of the same compound?
A: inactive

Q: What about the Activity [7] of the same compound?
A: Tde

Q: And the Activity [8]?
A: inactive

Q: What about the Activity [9] of the same compound?
A: Active

Q: And the Activity [10]?
A: inactive

Q: And the Ratio [11]?
A: 1.2

Q: What about the half-life [12] of the same compound?
A: 5.58 h

Q: What about the Activity [13] of the same compound?
A: Active

Q: And the Activity [14]?
A: Dose-Dependent Effect

Q: What about the Activity [15] of the same compound?
A: Non-Toxic

Q: What about the Activity [16] of the same compound?
A: Active

Q: And the Ratio Ki [17]?
A: 548

Q: What about the Ki [18] of the same compound?
A: 5.78 nM

Q: And the EC50 [19]?
A: 13.6 nM

Q: And the Ratio Ki [20]?
A: 361

Q: And the Activity [21]?
A: inactive

Q: And the Emax [22]?
A: 87.3%

Q: What about the Activity [23] of the same compound?
A: Tde

Q: What about the half-life [24] of the same compound?
A: 7.48 h

Q: And the Activity [25]?
A: Dose-Dependent Effect

Q: What about the ED50 [25] of the same compound?
A: 2.1 nmol

Q: What about the MPE [26] of the same compound?
A: 79.76%

Q: What about the Activity [27] of the same compound?
A: inactive

Q: And the IC50 [28]?
A: 47.5 nM

Q: What about the Activity [29] of the same compound?
A: inactive

Q: What about the Activity [30] of the same compound?
A: inactive

Q: What about the Time [31] of the same compound?
A: 447 s

Q: What about the Activity [32] of the same compound?
A: inactive

Q: What about the Activity [33] of the same compound?
A: Dose-Dependent Effect

Q: And the Activity [34]?
A: Dose-Dependent Effect

Q: What about the Activity [35] of the same compound?
A: inactive

Q: Which Activity [1] does the source give for `Cc1cc(O)cc(C)c1C[C@H](N)C(=O)N[C@H]1CSSC[C@@H](C(=O)NCC(=O)N[C@H](CCCNC(=N)N)C(=O)N[C@H](CCCNC(=N)N)C(=O)O)NC(=O)[C@H](Cc2ccc(Cl)cc2)NC(=O)[C@H](Cc2ccccc2)NC1=O` here?
A: Tde

Q: And the Activity [2]?
A: Active

Q: And the Activity [3]?
A: inactive

Q: And the Activity [4]?
A: Active

Q: And the Activity [5]?
A: Active

Q: And the Activity [6]?
A: inactive

Q: What about the Activity [7] of the same compound?
A: Tde

Q: What about the Activity [8] of the same compound?
A: inactive

Q: What about the Activity [9] of the same compound?
A: Active

Q: And the Activity [10]?
A: inactive

Q: What about the Ratio [11] of the same compound?
A: 1.5

Q: What about the half-life [12] of the same compound?
A: 5.33 h

Q: And the Activity [13]?
A: Active

Q: What about the Activity [14] of the same compound?
A: Dose-Dependent Effect

Q: What about the Activity [15] of the same compound?
A: Non-Toxic

Q: And the Activity [16]?
A: inactive

Q: What about the Ratio Ki [17] of the same compound?
A: 710

Q: What about the Ki [18] of the same compound?
A: 6.06 nM

Q: What about the EC50 [19] of the same compound?
A: 14.3 nM

Q: And the Ratio Ki [20]?
A: 705

Q: And the Activity [21]?
A: inactive

Q: And the Emax [22]?
A: 83.8%

Q: What about the Activity [23] of the same compound?
A: Tde

Q: What about the half-life [24] of the same compound?
A: 7.13 h

Q: What about the Activity [25] of the same compound?
A: Dose-Dependent Effect

Q: And the ED50 [25]?
A: 2.3 nmol

Q: And the MPE [26]?
A: 75.33%

Q: What about the Activity [27] of the same compound?
A: inactive

Q: And the IC50 [28]?
A: 49.3 nM

Q: What about the Activity [29] of the same compound?
A: inactive

Q: And the Activity [30]?
A: inactive

Q: What about the Time [31] of the same compound?
A: 450 s

Q: What about the Activity [32] of the same compound?
A: inactive

Q: And the Activity [33]?
A: Dose-Dependent Effect

Q: What about the Activity [34] of the same compound?
A: Dose-Dependent Effect

Q: And the Activity [35]?
A: inactive
